Oligonucleotides are written 5' to 3', each unit as a sugar letter and its base; * is a phosphorothioate linkage, no mark a phosphodiester; rarer units and linkages stand in square brackets, end groups in braces. Plain capitals give the bases only. Oligonucleotides are given in HELM: sugar(base)linkage, 5' to 3'; d 2'-deoxyribose, r ribose, m 2'-O-methylribose, p phosphate. ss, as = sense and antisense strand; d = 2'-deoxy (DNA); r = 2'-OH (RNA)
Target: TMEM63B
Assay: reporter assay of Huesken 2005
Settings: siRNA
Further: test concentration or dose not given here.

Substance	normalised inhibition (eCFP-eYFP dual reporter) [%]
RNA1{r(G)p.r(U)p.r(C)p.r(C)p.r(U)p.r(U)p.r(U)p.r(C)p.r(A)p.r(G)p.r(C)p.r(G)p.r(G)p.r(C)p.r(A)p.r(C)p.r(A)p.r(U)p.r(C)p.d(T)p.d(T)}|RNA2{r(G)p.r(A)p.r(U)p.r(G)p.r(U)p.r(G)p.r(C)p.r(C)p.r(G)p.r(C)p.r(U)p.r(G)p.r(A)p.r(A)p.r(A)p.r(G)p.r(G)p.r(A)p.r(C)p.d(A)p.d(G)}$$$RNA1{StrandType:ss}|RNA2{StrandType:as}$	65.1
RNA1{r(A)p.r(G)p.r(C)p.r(C)p.r(U)p.r(A)p.r(C)p.r(C)p.r(C)p.r(C)p.r(A)p.r(A)p.r(C)p.r(U)p.r(G)p.r(C)p.r(A)p.r(C)p.r(A)p.d(T)p.d(T)}|RNA2{r(U)p.r(G)p.r(U)p.r(G)p.r(C)p.r(A)p.r(G)p.r(U)p.r(U)p.r(G)p.r(G)p.r(G)p.r(G)p.r(U)p.r(A)p.r(G)p.r(G)p.r(C)p.r(U)p.d(T)p.d(C)}$$$RNA1{StrandType:ss}|RNA2{StrandType:as}$	70.7
RNA1{r(U)p.r(C)p.r(C)p.r(U)p.r(A)p.r(G)p.r(C)p.r(U)p.r(C)p.r(C)p.r(C)p.r(A)p.r(C)p.r(G)p.r(U)p.r(C)p.r(U)p.r(A)p.r(U)p.d(T)p.d(T)}|RNA2{r(A)p.r(U)p.r(A)p.r(G)p.r(A)p.r(C)p.r(G)p.r(U)p.r(G)p.r(G)p.r(G)p.r(A)p.r(G)p.r(C)p.r(U)p.r(A)p.r(G)p.r(G)p.r(A)p.d(A)p.d(C)}$$$RNA1{StrandType:ss}|RNA2{StrandType:as}$	79.7
RNA1{r(U)p.r(G)p.r(C)p.r(C)p.r(A)p.r(C)p.r(C)p.r(C)p.r(G)p.r(A)p.r(C)p.r(G)p.r(C)p.r(C)p.r(C)p.r(U)p.r(C)p.r(A)p.r(C)p.d(T)p.d(T)}|RNA2{r(G)p.r(U)p.r(G)p.r(A)p.r(G)p.r(G)p.r(G)p.r(C)p.r(G)p.r(U)p.r(C)p.r(G)p.r(G)p.r(G)p.r(U)p.r(G)p.r(G)p.r(C)p.r(A)p.d(T)p.d(C)}$$$RNA1{StrandType:ss}|RNA2{StrandType:as}$	12.7
RNA1{r(C)p.r(G)p.r(C)p.r(U)p.r(A)p.r(C)p.r(A)p.r(A)p.r(G)p.r(G)p.r(A)p.r(G)p.r(G)p.r(A)p.r(U)p.r(G)p.r(A)p.r(U)p.r(C)p.d(T)p.d(T)}|RNA2{r(G)p.r(A)p.r(U)p.r(C)p.r(A)p.r(U)p.r(C)p.r(C)p.r(U)p.r(C)p.r(C)p.r(U)p.r(U)p.r(G)p.r(U)p.r(A)p.r(G)p.r(C)p.r(G)p.d(C)p.d(A)}$$$RNA1{StrandType:ss}|RNA2{StrandType:as}$	79.3
RNA1{r(U)p.r(G)p.r(G)p.r(G)p.r(A)p.r(G)p.r(A)p.r(A)p.r(C)p.r(C)p.r(A)p.r(C)p.r(C)p.r(A)p.r(U)p.r(U)p.r(G)p.r(C)p.r(C)p.d(T)p.d(T)}|RNA2{r(G)p.r(G)p.r(C)p.r(A)p.r(A)p.r(U)p.r(G)p.r(G)p.r(U)p.r(G)p.r(G)p.r(U)p.r(U)p.r(C)p.r(U)p.r(C)p.r(C)p.r(C)p.r(A)p.d(A)p.d(A)}$$$RNA1{StrandType:ss}|RNA2{StrandType:as}$	43.8
RNA1{r(G)p.r(G)p.r(G)p.r(A)p.r(U)p.r(G)p.r(G)p.r(G)p.r(G)p.r(C)p.r(U)p.r(C)p.r(C)p.r(U)p.r(G)p.r(G)p.r(G)p.r(A)p.r(G)p.d(T)p.d(T)}|RNA2{r(C)p.r(U)p.r(C)p.r(C)p.r(C)p.r(A)p.r(G)p.r(G)p.r(A)p.r(G)p.r(C)p.r(C)p.r(C)p.r(C)p.r(A)p.r(U)p.r(C)p.r(C)p.r(C)p.d(C)p.d(A)}$$$RNA1{StrandType:ss}|RNA2{StrandType:as}$	43.3
RNA1{r(A)p.r(A)p.r(G)p.r(G)p.r(A)p.r(G)p.r(A)p.r(A)p.r(C)p.r(G)p.r(U)p.r(G)p.r(C)p.r(C)p.r(U)p.r(A)p.r(C)p.r(C)p.r(A)p.d(T)p.d(T)}|RNA2{r(U)p.r(G)p.r(G)p.r(U)p.r(A)p.r(G)p.r(G)p.r(C)p.r(A)p.r(C)p.r(G)p.r(U)p.r(U)p.r(C)p.r(U)p.r(C)p.r(C)p.r(U)p.r(U)p.d(G)p.d(C)}$$$RNA1{StrandType:ss}|RNA2{StrandType:as}$	70.2
RNA1{r(C)p.r(U)p.r(U)p.r(G)p.r(A)p.r(A)p.r(A)p.r(U)p.r(C)p.r(A)p.r(G)p.r(G)p.r(G)p.r(A)p.r(A)p.r(C)p.r(A)p.r(A)p.r(C)p.d(T)p.d(T)}|RNA2{r(G)p.r(U)p.r(U)p.r(G)p.r(U)p.r(U)p.r(C)p.r(C)p.r(C)p.r(U)p.r(G)p.r(A)p.r(U)p.r(U)p.r(U)p.r(C)p.r(A)p.r(A)p.r(G)p.d(T)p.d(T)}$$$RNA1{StrandType:ss}|RNA2{StrandType:as}$	71.1

Target: MRFAP1
Assay: reporter assay of Huesken 2005
Settings: siRNA

Substance	normalised inhibition (eCFP-eYFP dual reporter) [%]
sense rGrGrArArArArUrGrCrGrCrUrCrArCrArUrArCdTdT / antisense rGrUrArUrGrUrGrArGrCrGrCrArUrUrUrUrCrCdAdA	86.7
sense rUrCrUrUrUrUrCrCrCrCrUrCrUrGrUrCrUrUrCdTdT / antisense rGrArArGrArCrArGrArGrGrGrGrArArArArGrAdAdA	35.3
sense rUrArUrCrCrCrCrArUrArUrArUrUrUrGrArGrGdTdT / antisense rCrCrUrCrArArArUrArUrArUrGrGrGrGrArUrAdCdC	48.6
sense rGrArGrArArGrGrArArArArCrCrUrGrCrArArUdTdT / antisense rArUrUrGrCrArGrGrUrUrUrUrCrCrUrUrCrUrCdAdG	79.1
sense rArGrCrUrCrGrUrGrCrGrGrCrGrGrArUrArGrAdTdT / antisense rUrCrUrArUrCrCrGrCrCrGrCrArCrGrArGrCrUdGdC	79.7
sense rCrArGrGrArGrArUrGrGrCrGrArArGrArUrGrGdTdT / antisense rCrCrArUrCrUrUrCrGrCrCrArUrCrUrCrCrUrGdCdG	81.9
sense rGrGrArUrUrGrUrArUrUrGrUrUrUrCrUrArUrGdTdT / antisense rCrArUrArGrArArArCrArArUrArCrArArUrCrCdTdC	93.3
sense rGrUrGrArGrCrCrGrUrCrCrGrCrGrGrUrUrUrCdTdT / antisense rGrArArArCrCrGrCrGrGrArCrGrGrCrUrCrArCdGdA	72.2
sense rGrGrUrCrArArArArCrCrCrUrUrArCrCrArUrGdTdT / antisense rCrArUrGrGrUrArArGrGrGrUrUrUrUrGrArCrCdTdC	84.5
sense rUrGrGrArGrGrUrGrCrUrGrGrArGrCrCrGrGrAdTdT / antisense rUrCrCrGrGrCrUrCrCrArGrCrArCrCrUrCrCrAdCdC	69.1
sense rCrCrCrCrUrCrUrGrUrCrUrUrCrArCrUrCrUrGdTdT / antisense rCrArGrArGrUrGrArArGrArCrArGrArGrGrGrGdAdA	87.5
sense rCrUrUrCrGrArGrCrArGrUrUrUrCrUrGrCrUrGdTdT / antisense rCrArGrCrArGrArArArCrUrGrCrUrCrGrArArGdTdC	59.9
sense rUrCrCrArGrArUrCrArArGrArCrGrCrArGrGrUdTdT / antisense rArCrCrUrGrCrGrUrCrUrUrGrArUrCrUrGrGrAdTdC	54.6
sense rCrGrGrGrGrCrArArGrCrUrGrUrGrGrGrArGrAdTdT / antisense rUrCrUrCrCrCrArCrArGrCrUrUrGrCrCrCrCrGdGdT	69.6
sense rGrArArCrArGrCrGrGrCrGrGrArArGrUrUrUrUdTdT / antisense rArArArArCrUrUrCrCrGrCrCrGrCrUrGrUrUrCdCdA	84.3
sense rUrCrArCrCrGrCrCrUrCrUrGrArArArGrUrUrCdTdT / antisense rGrArArCrUrUrUrCrArGrArGrGrCrGrGrUrGrAdGdC	45.5
sense rCrCrArGrArGrArGrCrCrUrUrUrGrUrUrUrUrCdTdT / antisense rGrArArArArCrArArArGrGrCrUrCrUrCrUrGrGdTdT	89.6
sense rArArArCrUrUrCrArArGrGrArArGrArGrGrCrGdTdT / antisense rCrGrCrCrUrCrUrUrCrCrUrUrGrArArGrUrUrUdTdG	66.3
sense rGrGrGrCrGrGrCrGrCrCrGrArGrCrCrCrCrGrCdTdT / antisense rGrCrGrGrGrGrCrUrCrGrGrCrGrCrCrGrCrCrCdGdC	74.9
sense rUrGrGrArCrArArUrArUrGrCrUrGrArUrCrCrAdTdT / antisense rUrGrGrArUrCrArGrCrArUrArUrUrGrUrCrCrAdTdC	91.5
sense rGrArGrArUrGrCrUrGrGrUrGrCrArGrCrUrCrGdTdT / antisense rCrGrArGrCrUrGrCrArCrCrArGrCrArUrCrUrCdGdG	32.2
sense rGrUrUrCrCrUrGrArArUrUrUrGrArGrGrUrGrCdTdT / antisense rGrCrArCrCrUrCrArArArUrUrCrArGrGrArArCdAdC	23.1
sense rArGrArGrGrCrCrUrCrUrGrArGrGrArGrArGrCdTdT / antisense rGrCrUrCrUrCrCrUrCrArGrArGrGrCrCrUrCrUdAdC	69.3
sense rGrGrArGrUrUrGrGrArGrCrUrCrArCrCrGrCrCdTdT / antisense rGrGrCrGrGrUrGrArGrCrUrCrCrArArCrUrCrCdAdA	50
sense rUrGrArUrGrArCrCrUrGrGrGrArGrArArGrGrGdTdT / antisense rCrCrCrUrUrCrUrCrCrCrArGrGrUrCrArUrCrAdGdT	33.2
sense rUrArGrGrArCrUrGrArUrGrArCrCrUrGrGrGrAdTdT / antisense rUrCrCrCrArGrGrUrCrArUrCrArGrUrCrCrUrAdGdC	70.4
sense rUrUrArCrCrArUrGrUrUrGrArArArArCrArArAdTdT / antisense rUrUrUrGrUrUrUrUrCrArArCrArUrGrGrUrArAdGdG	91.3
sense rUrUrGrGrCrUrGrArCrArUrGrArCrArCrCrCrUdTdT / antisense rArGrGrGrUrGrUrCrArUrGrUrCrArGrCrCrArAdTdC	65.4
sense rCrArArArArCrCrCrUrUrArCrCrArUrGrUrUrGdTdT / antisense rCrArArCrArUrGrGrUrArArGrGrGrUrUrUrUrGdAdC	70.3

Source: the OligoGym collection
